These results are taken from US10646469B2, “Substituted indole derivatives as dengue viral replication inhibitors” (Janssen Pharmaceuticals, Inc., priority 2016, dated 2020).

Where two headings read alike, the source gives them in different places.

Series [1] relates to DENV-2 16681 strain. Put plainly: DENV-2 antiviral assay (eGFP-labeled virus in Vero cells). The class given is cell-based, Dengue virus. As to conditions: Dengue virus, DENV2, Vero, 72 h, DENV-2 16681 eGFP, MOI 0.5, 3 days. Put shortly: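 Vero cells (2500/well) pre-plated with compound (9-step 5-fold series), infected next day with eGFP-labeled DENV-2 16681 at MOI 0.5 in MEM with 2% FCS; 3 days at 37° C. eGFP fluorescence read at 488 nm; inhibition versus virus and cell controls, EC50 by linear interpolation.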

The nature of series [2]: Toxicity on the same plates (ATPlite cell viability). As to conditions: African green monkey, CC50, Vero cells, same plates as DENV-2 antiviral assay.
The test system of series [3] is DENV-2. The following applies: analogous DENV-2 antiviral assay, reported activity; cited from earlier work.
For series [4] the following is noted: analogous DENV-2 antiviral assay, reported activity; cited from earlier work.

For the molecule `COc1cc(NC(C(=O)c2c[nH]c3ccc(C(F)(F)F)cc23)c2ccc(F)cc2OC)cc(OCCO)c1` (racemic) [Compound 1, 2-(4-fluoro-2-methoxyphenyl)-2-((3-(2-hydroxyethoxy)-5-methoxyphenyl)amino)-1-(5-(trifluoromethyl)-1H-indol-3-yl)ethanone], the melting point (commonly the temperature, or range, at which the solid turns liquid) turned out to be 132 °C. The EC50 (as a rule, the concentration needed to bring the measured effect to its halfway point) in series [1] amounted to 1.2 nM. In addition, the CC50 in series [2] worked out at 5500 nM.

`COc1cc(NC(C(=O)c2c[nH]c3cc(OC)c(C(F)(F)F)cc23)c2ccc(F)cc2OC)cc(OCCO)c1` (racemic) [Compound 2, 2-(4-fluoro-2-methoxyphenyl)-2-((3-(2-hydroxyethoxy)-5-methoxyphenyl)amino)-1-(6-methoxy-5-(trifluoromethyl)-1H-indol-3-yl)ethanone]: the melting point stood at 174 °C. In series [1], the EC50 came to 0.71 nM. The CC50 in series [2] amounted to 4800 nM.

In turn, `COc1cc(NC(C(=O)c2c[nH]c3cc(OC)c(OC(F)(F)F)cc23)c2ccc(F)cc2OC)cc(OCCO)c1` (racemic) [Compound 6, 2-(4-fluoro-2-methoxyphenyl)-2-((3-(2-hydroxyethoxy)-5-methoxyphenyl)amino)-1-(6-methoxy-5-(trifluoromethoxy)-1H-indol-3-yl)ethanone] gave a melting point of 178 °C. The same molecule yielded an EC50 in series [1] of 0.84 nM. In series [2], this molecule had a CC50 of 3600 nM.

In turn, `COc1cc(NC(C(=O)c2c[nH]c3c(C)cc(OC(F)(F)F)cc23)c2ccc(Cl)cc2OC)cc(OCCO)c1` (racemic) [Compound 16, 2-(4-chloro-2-methoxyphenyl)-2-((3-(2-hydroxyethoxy)-5-methoxyphenyl)amino)-1-(7-methyl-5-(trifluoromethoxy)-1H-indol-3-yl)ethanone] registered a melting point of 105 °C. This molecule also came in with an EC50 in series [1] of 0.19 nM. The molecule also registered a CC50 in series [2] of 2500 nM.

Take `COc1cc(NC(C(=O)c2c[nH]c3ccccc23)c2ccc(F)cc2)cc(OCCO)c1` (centres unmarked) [(350) of WO-2013/045516]: the EC50 in series [3] was 10 nM. Moreover, the CC50 in series [4] is 46000 nM.
